Legend:
[1] = tested on: AKR/J mice; assay: Obesity In Vivo Assays in diet-induced obese AKR/J mice (Example 14, first study and second dose response study); conditions: for Brown Adipose Tissue / Epididymal fat / Muscle / Retroperitoneal fat / Intake of high fat diet (g) Day 0-3 / Intake of high fat diet (g) Day 4-7 / Weight loss (g) Day 4 / Weight loss (g) Day 8 / Weight loss (g) Day 10 / Total intake of high fat diet (g) Day 1-10 / Weight loss (g) Day 7: mean ± SE; for Ratio (fat/muscle): total weights of inguinal fat and retroperitoneal fat/muscle weight
Description: Compound #8 was suspended in 0.5% Methocel using a hand held homogenizer to reduce the particle size and a magnetic stir bar and stir plate to keep the particles homogeneously suspended throughout the dosing period. 0.5% Hydroxypropyl Methylcellulose (Methocel) used as vehicle/control.
Male AKR/J mice weighing between 35 to 46 grams were used for weight loss studies. AKR/J mice are susceptible to diet-induced obesity. Male AKR/J mice (average body weight of about 20 grams) at 4 to 5 weeks of age (obtained from Jackson Laboratories, Bar Harbor, Me.) were group housed, five per cage, in a shoebox cage at 21° C. with a 12 h light dark cycle. All of the mice were quarantined for a period of one week before transfer to the animal procedure room. The mice were fed a high fat diet for 8 weeks to induce obesity. The composition of the diet by energy was 45% energy as fat, 20% as protein, and 35% as carbohydrate (obtained from Research Diets, D12451, New Brunswick, N.J.). As a non-obese control, an additional group of mice that were age- and weight-matched was fed with a low fat diet (obtained from Research Diets, D12450B, New Brunswick, N.J.). Only mice that developed obesity, defined as a body weight between 35 and 46 grams, were selected for the weight loss studies. Animals were separated and single housed at least three days prior to the drug treatments to allow acclimation to the new surroundings.
The assay comprised two separate studies: In the first study, 10 mice were given vehicle control of 0.5% Methocel; 10 mice were treated with 300 mg/kg Compound #8 in vehicle; and 10 mice were dosed as positive control with 10 mg/kg sibutramine (a weight loss agent) in vehicle. In the second study, 48 mice were allocated into 4 treatment groups of 12 mice each. The four groups were then treated with 0.5% Methocel (vehicle), 10 mg/kg Compound #8, 30 mg/kg Compound #8, and 100 mg/kg Compound #8 in vehicle, respectively.
The mice were orally gavaged once daily (at 1500-1700 hour) with vehicle control (0.5% methocel, pH7.4) or vehicle containing Compound #8 for 10 days. The dosing volume was 5 mL/kg body weight (0.2 mL for 40 gram mice). Body weight and food intake of mice were monitored periodically throughout the studies. On Day 11, the mice were fasted for 4 hr during light cycle (food was removed 0600-1000 hour). A necropsy was done 18 hours after last dosing. The mice were anaesthetized with sodium pentobarbital (1 ml/kg, intraperitoneal [i.p.] injection, SleepAway, Fort Dodge, Iowa) and blood was drawn via cardiac puncture using an 1 mL syringe and collected into heparinized tubes. […] Plasma samples were obtained by centrifuging whole blood at 2000˜3000 g for 10˜20 minutes at 4° C. and stored at −20° C. for further measurement of insulin, HDL, LDL, and total cholesterol and triglyceride.
Blood glucose levels were measured with a glucometer (OneTouch UltraSmart, Lifescan, Milpitas, Calif.) after collecting two microliters of blood through tail puncture. Plasma insulin concentrations were measured by using rat/mouse insulin enzyme-linked immunosorbent assay (ELISA) kit (EZRMI-13K, LINCO Research, St. Charles, Mo.). Blood samples were diluted 1:4 in charcoal stripped mouse serum that was included in the ELISA kit. The rest of the procedure followed the manufacturers instruction. The total fluorescence was detected using an Orion 1 Microplate Luminometer (Berthold Detection Systems, Pforzheim, Germany). Plasma total cholesterol, high density lipoprotein (HDL), low density lipoprotein (LDL) and triglyceride concentrations were measured by using a Bayer ADVIA 1650 blood chemistry analyzer (Bayer HealthCare LLC, Diagnostic Division, Tarrytown, N.Y.). […]

[2] = tested on: AKR/J Obese Mice; assay: AKR/J Obese Mice In Vivo Assay (Example 13)
Method: AKR/J mice are known in the art to be susceptible to diet-induced obesity. (Rossmeisl M, Rim J S, Koza R A, Kozak L P. Diabetes. 2003 August; 52(8):1958-66.)
Male AKR/J mice (˜20 gram) at 4-5 weeks of age (Jackson Laboratories, Bar Harbor, Me.) were housed individually in a shoe-box cage at 21° C. with a 12-h light-dark cycle. The mice were fed with a high fat diet for 8 weeks to induce obesity. The composition of the diet by energy was 45% energy as fat, 20% as protein, and 35% as carbohydrate (Research Diets, D12451, New Brunswick, N.J.).
Obese mice with body weights between 35 and 46 grams were selected for the studies. Mice were randomized according to body weight into treatment groups at 13 weeks of age. The mice were orally gavaged once daily (0.2 ml at 1500-1700 hour) with vehicle control (0.5% methylcellulose, pH7.4) or vehicle containing Compound #8 (300 mg/kg). The body weights and food intake of the mice were monitored every few days. On day 11, the mice were anaesthetized with sodium pentobarbital (1 ml/kg, i.p, Sleepaway, Fort Dodge, Iowa). White adipose tissue (WAT) (retroperitoneal fat) and skeletal muscle (gastrocnemius and soleus muscle) were dissected and weighed.
Data shown below are expressed as mean and standard error calculated using 9-10 mice per treatment group. The 2 tailed Student's t-Tests were used for statistic analysis. All animal studies complied with the guideline of the Institutional Animal Care and Use Committee.

[3] = first study, 10 mg/kg, after 10 days of dosing
[4] = first study, positive control 10 mg/kg
[5] = 300 mg/kg oral, 10-day treatment
[6] = first study, 300 mg/kg oral gavage once daily
[7] = first study, 300 mg/kg, after 10 days of dosing
[8] = second study, 10 mg/kg oral once daily
[9] = second study, 30 mg/kg oral once daily
[10] = second study, 100 mg/kg oral once daily

## CC(C)CC(N(C)C)C1(c2ccc(Cl)cc2)CCC1 (stereo not shown) [Sibutramine, sibutramine, reference compound]
[1]; first study, 10 mg/kg
  food intake from day 0 to Day 3 (in words): reduction of food intake
  weight after 3 days treatment (in words): lost weight
  weight at the end of the study compared to control mice (in words): no difference in weight
  Ratio (fat/muscle): 7.67 ± 0.59
[1]; [3]
  Brown Adipose Tissue: 0.14 ± 0.01 g
  Epididymal fat: 1.76 ± 0.11 g
  Muscle: 0.31 ± 0.01 g
  Retroperitoneal fat: 0.61 ± 0.07 g
[1]; [4]
  Intake of high fat diet (g) Day 0-3: 6.5 ± 0.3 g
  Intake of high fat diet (g) Day 4-7: 14.4 ± 0.7 g
  Weight loss (g) Day 4: -2.0 ± 0.2 g
  Weight loss (g) Day 8: -1.2 ± 0.4 g
  Weight loss (g) Day 10: -1.2 ± 0.5 g

## NS(=O)(=O)NCC1CCc2ccccc2O1 (stereo not shown)
other
  melting point: 100 to 101 °C

## NS(=O)(=O)NC[C@H]1COc2cc(Cl)ccc2O1 [Compound #8, (2S)-(−)-N-(6-Chloro-2,3-dihydro-benzo[1,4]dioxin-2-ylmethyl)-sulfamide]
[2]; 300 mg/kg oral gavage once daily, 10-day treatment, mean ± standard error, 9-10 mice
  Weight Loss: -3.3 ± 0.34 g
[2]; 300 mg/kg oral gavage once daily, Day 4-10, mean ± standard error
  Food Intake (g) Day 4-10: 16.2 ± 0.68 g
[2]; 300 mg/kg oral gavage once daily, dissected day 11, mean ± standard error
  Retroperitoneal Fat Weight: 0.47 ± 0.04 g
[2]; 300 mg/kg oral gavage once daily, gastrocnemius and soleus, day 11, mean ± standard error
  Skeletal Muscle Weight: 0.30 ± 0.01 g
[2]; [5]
  changes in skeletal muscle mass (in words): no significant changes
  decrease of fat to lean mass ratio (white adipose tissue/skeletal muscle) compared to vehicle treated mice: 16.8%
  reduction of retroperitoneal fat relative to vehicle treated mice: 26.6%
[2]; 300 mg/kg oral, 10-day treatment, vehicle 8.9±0.4, p<0.05
  fat to lean mass ratio (white adipose tissue/skeletal muscle): 7.4±0.5
[2]; 300 mg/kg oral, after 10-day treatment
  weight loss compared to vehicle treated mice (in words): greater weight loss
[2]; 300 mg/kg oral, day 4 to day 10
  food intake relative to control animals (in words): reduction of food intake
[2]; 300 mg/kg oral, p<0.05
  gastric emptying: delay gastric emptying at a statistically significant level
[1]; [6]
  Intake of high fat diet (g) Day 0-3: 10.0 ± 0.4 g
  Intake of high fat diet (g) Day 4-7: 10.6 ± 0.4 g
  Weight loss (g) Day 4: -0.3 ± 0.3 g
  Weight loss (g) Day 8: -2.5 ± 0.3 g
  Weight loss (g) Day 10: -3.3 ± 0.3 g
[1]; [7]
  weight loss compared with vehicle treated mice (in words): significant weight loss
  white adipose tissue weight compared with vehicle treatment (in words): reduced white adipose tissue weight
  Brown Adipose Tissue: 0.22 ± 0.09 g
  Epididymal fat: 1.73 ± 0.10 g
  Muscle: 0.30 ± 0.01 g
  Retroperitoneal fat: 0.47 ± 0.04 g
[1]; first study, 300 mg/kg, three days after treatment
  food intake compared to vehicle (in words): Significant suppression of food intake
[1]; first study, 300 mg/kg
  Ratio (fat/muscle): 7.42 ± 0.54
[1]; first study, 300 mg/kg, vehicle 0.16±0.02 g, p<0.05
  Total stomach content, measured at the end of the study: 0.27 ± 0.05 g
[1]; second dose response study, 10, 30, and 100 mg/kg
  weight loss or food intake suppression (in words): no significant (P>0.05) weight loss or food intake suppression
[1]; [8]
  Total intake of high fat diet (g) Day 1-10: 28 ± 0.5 g
  Weight loss (g) Day 4: 0.1 ± 0.1 g
  Weight loss (g) Day 7: 0.2 ± 0.2 g
  Weight loss (g) Day 10: 0.3 ± 0.3 g
[1]; [9]
  Total intake of high fat diet (g) Day 1-10: 28 ± 0.5 g
  Weight loss (g) Day 4: 0.1 ± 0.1 g
  Weight loss (g) Day 7: 0.0 ± 0.2 g
  Weight loss (g) Day 10: -0.4 ± 0.2 g
[1]; [10]
  Total intake of high fat diet (g) Day 1-10: 28 ± 0.6 g
  Weight loss (g) Day 4: 0.2 ± 0.1 g
  Weight loss (g) Day 7: 0.2 ± 0.3 g
  Weight loss (g) Day 10: 0.1 ± 0.2 g
